What was measured:
Type in all cases: in vivo, human (patients)
[1] = tested on: Patients aged 1-2 years old with Dravet Syndrome (DS); assay: Expanded access treatment with highly purified CBD extract, seizure frequency, Patient 1 (Dravet Syndrome); parameters: key to Seizure frequency, Clonic / Seizure frequency, Tonic-clonic / Seizure frequency, Focal with impairment: number of seizures per day; details: for Seizure frequency, Focal with impairment / Seizure frequency, Tonic-clonic: baseline 3.0; for Seizure frequency, Clonic: baseline 4.0
Experimental: (§1) Example 1 below describes the use of a highly purified cannabis extract comprising cannabidiol (CBD) in an expanded access treatment program in children with TRE.
(§2) Patients aged 1-2 years old with Dravet Syndrome (DS), Lennox-Gastaut Syndrome (LGS), or Tuberous Sclerosis Complex (TSC) were administered a highly purified extract of cannabidiol (CBD) obtained from a cannabis plant […].
(§3) The highly purified CBD extract (greater than 98% CBD w/w) was administered in a formulation described herein at a starting dose of 5 mg/kg/day in addition to their baseline anti-epileptic drug (AED) regimen.
(§4) The starting dose of the patients was increased from 5 mg/kg/day to 10 mg/kg/day after one week of administering the first dose of CBD.
(§5) All patients were taking at least two concomitant anti-epileptic drugs. These included clobazam; levetiracetam; topiramate; vigabatrin; phenobarbital; and lacosamide.
(§6) Prior to treatment with CBD, the number of seizures for each patient at baseline was recorded. During the course of treatment, the number of seizures that each patient experienced per day was recorded. Table 9 provides information on the demographics, seizure type, and concomitant anti-epileptic drugs (AED) for each patient that was administered the highly purified extract of CBD.

[2] = tested on: Patients aged 1-2 years old with Lennox-Gastaut Syndrome (LGS); assay: Expanded access treatment with highly purified CBD extract, seizure frequency, Patient 2 (Lennox-Gastaut Syndrome); parameters: key to Seizure frequency, Clonic / Seizure frequency, Tonic / Seizure frequency, Atonic / Seizure frequency, Absence: number of seizures per day; details: for Seizure frequency, Tonic: baseline 4.0; for Seizure frequency, Absence: baseline 120.0; for Seizure frequency, Clonic: baseline 200.0; for Seizure frequency, Atonic: baseline 300.0
Experimental: as §1, §2, §3, §4, §5, §6

[3] = tested on: Patients aged 1-2 years old with Tuberous Sclerosis Complex (TSC); assay: Expanded access treatment with highly purified CBD extract, seizure frequency, Patient 3 (Tuberous Sclerosis Complex); parameters: key to Seizure frequency, Focal with impairment / Seizure frequency, Focal without impairment: number of seizures per day; details: for Seizure frequency, Focal without impairment / Seizure frequency, Focal with impairment / Seizure frequency, Focal with secondary generalisation: Patient 3, Tuberous Sclerosis; for Seizure frequency, Focal without impairment: baseline 0.0; for Seizure frequency, Focal with impairment: baseline 25.4; for Seizure frequency, Focal with secondary generalisation: baseline 63.0
Experimental: as §1, §2, §3, §4, §5, §6

[4] = tested on: seizures in patients; assay: Onset of effect of seizure reduction during CBD titration; details: patients receiving 5 mg/kg/day; e.g., at 2, 3, 4, 5, or 6 days
[5] = Patient 1, Dravet Syndrome, 2 weeks, dose CBD 11.7 mg/kg/day
[6] = Patient 1, Dravet Syndrome, 4 weeks, dose CBD 19.2 mg/kg/day
[7] = Patient 1, Dravet Syndrome, 8 weeks, dose CBD 24.3 mg/kg/day
[8] = Patient 1, Dravet Syndrome, 16 weeks, dose CBD 25.4 mg/kg/day
[9] = Patient 1, Dravet Syndrome, 24 weeks, dose CBD 24.8 mg/kg/day
[10] = Patient 1, Dravet Syndrome, 36 weeks, dose CBD 23.0 mg/kg/day
[11] = Patient 1, Dravet Syndrome, 48 weeks, dose CBD 22.6 mg/kg/day
[12] = Patient 1, Dravet Syndrome, over the treatment period
[13] = Patient 2, Lennox-Gastaut Syndrome, 4 weeks, dose CBD 25.0 mg/kg/day
[14] = Patient 2, Lennox-Gastaut Syndrome, 8 weeks, dose CBD 50.0 mg/kg/day
[15] = Patient 2, Lennox-Gastaut Syndrome, 12 weeks, dose CBD 49.6 mg/kg/day
[16] = Patient 2, Lennox-Gastaut Syndrome, 24 weeks, dose CBD 49.0 mg/kg/day
[17] = Patient 2, Lennox-Gastaut Syndrome, 36 weeks, dose CBD 48.6 mg/kg/day
[18] = Patient 2, Lennox-Gastaut Syndrome, 60 weeks, dose CBD 3.7 mg/kg/day
[19] = Patient 2, Lennox-Gastaut Syndrome, 72 weeks, dose CBD 50.0 mg/kg/day
[20] = Patient 2, Lennox-Gastaut Syndrome, over the treatment period
[21] = Patient 3, Tuberous Sclerosis Complex, over the treatment period
[22] = 2 weeks, dose CBD 10.0 mg/kg/day
[23] = 4 weeks, dose CBD 20.0 mg/kg/day
[24] = 8 weeks, dose CBD 15.0 mg/kg/day
[25] = 16 weeks, dose CBD 15.0 mg/kg/day
[26] = 24 weeks, dose CBD 13.0 mg/kg/day
[27] = 36 weeks, dose CBD 13.0 mg/kg/day
[28] = 48 weeks, dose CBD 13.0 mg/kg/day
[29] = 60 weeks, dose CBD 11.5 mg/kg/day
[30] = 84 weeks, dose CBD 27.0 mg/kg/day
[31] = 96 weeks, dose CBD 22.0 mg/kg/day
[32] = 108 weeks, dose CBD 13.0 mg/kg/day
[33] = 120 weeks, dose CBD 29.0 mg/kg/day
[34] = 144 weeks, dose CBD 35.0 mg/kg/day

C=C(C)[C@@H]1CCC(C)=C[C@H]1c1c(O)cc(CCCCC)cc1O [CBD, Cannabidiol]
relief from clonic seizures after treatment ([1]; Patient 1): complete relief
relief from focal seizures with impairment after treatment ([1]; Patient 1): complete relief
Seizure frequency, Focal with impairment [1, 5]: 0.0
Seizure frequency, Tonic-clonic [1, 5]: 4.0
Seizure frequency, Clonic [1, 5]: 6.0
Seizure frequency, Focal with impairment [1, 6]: 0.0
Seizure frequency, Tonic-clonic [1, 6]: 2.0
Seizure frequency, Clonic [1, 6]: 4.0
Seizure frequency, Focal with impairment [1, 7]: 0.0
Seizure frequency, Tonic-clonic [1, 7]: 0.0
Seizure frequency, Clonic [1, 7]: 2.0
Seizure frequency, Focal with impairment [1, 8]: 0.0
Seizure frequency, Tonic-clonic [1, 8]: 0.0
Seizure frequency, Clonic [1, 8]: 2.6
Seizure frequency, Focal with impairment [1, 9]: 0.0
Seizure frequency, Tonic-clonic [1, 9]: 1.6
Seizure frequency, Clonic [1, 9]: 0.8
Seizure frequency, Focal with impairment [1, 10]: 0.0
Seizure frequency, Tonic-clonic [1, 10]: 6.9
Seizure frequency, Clonic [1, 10]: 0.0
Seizure frequency, Focal with impairment [1, 11]: 0.0
Seizure frequency, Tonic-clonic [1, 11]: 6.5
Seizure frequency, Clonic [1, 11]: 0.0
reduction in clonic seizures [1, 12]: 100%
reduction in focal seizures with impairment [1, 12]: 100%
relief from clonic seizures after treatment ([2]; Patient 2): complete relief
Seizure frequency, Tonic [2, 13]: 116.0
Seizure frequency, Absence [2, 13]: 116.0
Seizure frequency, Clonic [2, 13]: 64.0
Seizure frequency, Atonic [2, 13]: 388.0
Seizure frequency, Tonic [2, 14]: 48.0
Seizure frequency, Absence [2, 14]: 78.0
Seizure frequency, Clonic [2, 14]: 40.0
Seizure frequency, Atonic [2, 14]: 564.0
Seizure frequency, Tonic [2, 15]: 116.0
Seizure frequency, Absence [2, 15]: 140.0
Seizure frequency, Clonic [2, 15]: 40.0
Seizure frequency, Atonic [2, 15]: 300.0
Seizure frequency, Tonic [2, 16]: 116.0
Seizure frequency, Absence [2, 16]: 140.0
Seizure frequency, Clonic [2, 16]: 40.0
Seizure frequency, Atonic [2, 16]: 280.0
Seizure frequency, Tonic [2, 17]: 116.0
Seizure frequency, Absence [2, 17]: 140.0
Seizure frequency, Clonic [2, 17]: 40.0
Seizure frequency, Atonic [2, 17]: 280.0
Seizure frequency, Tonic [2, 18]: 1.0
Seizure frequency, Absence [2, 18]: 40.0
Seizure frequency, Clonic [2, 18]: 0.0
Seizure frequency, Atonic [2, 18]: 1.0
Seizure frequency, Tonic [2, 19]: 20.0
Seizure frequency, Absence [2, 19]: 0.0
Seizure frequency, Clonic [2, 19]: 0.0
Seizure frequency, Atonic [2, 19]: 0.0
reduction in absence seizures [2, 20]: 100%
reduction in atonic seizures [2, 20]: 100%
reduction in clonic seizures [2, 20]: 100%
relief from focal seizures with impairment after treatment ([3]; Patient 3): complete relief
reduction in focal seizures with impairment [3, 21]: 100%
reduction in focal seizures with secondary generalisation [3, 21]: 100%
Seizure frequency, Focal without impairment [3, 22]: 0.0
Seizure frequency, Focal with impairment [3, 22]: 20.0
Seizure frequency, Focal with secondary generalisation [3, 22]: 50.0
Seizure frequency, Focal without impairment [3, 23]: 0.0
Seizure frequency, Focal with impairment [3, 23]: 22.0
Seizure frequency, Focal with secondary generalisation [3, 23]: 61.0
Seizure frequency, Focal without impairment [3, 24]: 0.0
Seizure frequency, Focal with impairment [3, 24]: 15.4
Seizure frequency, Focal with secondary generalisation [3, 24]: 109.1
Seizure frequency, Focal without impairment [3, 25]: 0.0
Seizure frequency, Focal with impairment [3, 25]: 0.6
Seizure frequency, Focal with secondary generalisation [3, 25]: 46.2
Seizure frequency, Focal without impairment [3, 26]: 0.0
Seizure frequency, Focal with impairment [3, 26]: 0.0
Seizure frequency, Focal with secondary generalisation [3, 26]: 58.1
Seizure frequency, Focal without impairment [3, 27]: 0.0
Seizure frequency, Focal with impairment [3, 27]: 0.0
Seizure frequency, Focal with secondary generalisation [3, 27]: 0.0
Seizure frequency, Focal without impairment [3, 28]: 0.0
Seizure frequency, Focal with impairment [3, 28]: 0.0
Seizure frequency, Focal with secondary generalisation [3, 28]: 14.8
Seizure frequency, Focal without impairment [3, 29]: 0.0
Seizure frequency, Focal with impairment [3, 29]: 71.3
Seizure frequency, Focal with secondary generalisation [3, 29]: 0.0
Seizure frequency, Focal without impairment [3, 30]: 0.0
Seizure frequency, Focal with impairment [3, 30]: 62.5
Seizure frequency, Focal with secondary generalisation [3, 30]: 0.0
Seizure frequency, Focal without impairment [3, 31]: 0.0
Seizure frequency, Focal with impairment [3, 31]: 14.8
Seizure frequency, Focal with secondary generalisation [3, 31]: 0.0
Seizure frequency, Focal without impairment [3, 32]: 10.8
Seizure frequency, Focal with impairment [3, 32]: 0.3
Seizure frequency, Focal with secondary generalisation [3, 32]: 0.0
Seizure frequency, Focal without impairment [3, 33]: 11.4
Seizure frequency, Focal with impairment [3, 33]: 0.0
Seizure frequency, Focal with secondary generalisation [3, 33]: 0.0
Seizure frequency, Focal without impairment [3, 34]: 9.8
Seizure frequency, Focal with impairment [3, 34]: 0.0
Seizure frequency, Focal with secondary generalisation [3, 34]: 0.0
onset of effect of seizure reduction [4]: within one week

— patent US20250025482A1, “USE OF C[…] THE TREATMENT OF EPILEPSY” (GW Research Limited, priority 2021, published 2025)
